Results as given in article PMC8178125, “The acyl chains of phosphoinositide PIP3 alter the structure and function of nuclear receptor steroidogenic factor-1” (Journal of Lipid Research, 2021).
Blank lines part the entries; values can stand above or below the molecule they belong to. 5Fam = 5-carboxyfluorescein label on the N-terminus

What was measured:
human apo-SF-1 LBD [1] = biological target: T1, human apo-SF-1 LBD (Homo sapiens, UniProt Q13285, C247S/C412S); assay: Native gel (electromobility) shift assay of equilibrium phosphoinositide binding to apo-SF-1 LBD; conditions: for Kd: apo-SF-1 LBD 1 μM, 37°C 1 h, 1-site binding model, SEM, read-out: apparent Kd of phosphoinositide binding to SF-1 LBD
T1 construct: human SF-1 LBD comprising amino acids 218–461 of human SF-1; 6X-HIS (N, cleaved yes); TEV site (N, cleaved yes); made in house; host or cells: E. coli BL21 (DE3)
T1 sequence (Q13285 218-461 C247S/C412S): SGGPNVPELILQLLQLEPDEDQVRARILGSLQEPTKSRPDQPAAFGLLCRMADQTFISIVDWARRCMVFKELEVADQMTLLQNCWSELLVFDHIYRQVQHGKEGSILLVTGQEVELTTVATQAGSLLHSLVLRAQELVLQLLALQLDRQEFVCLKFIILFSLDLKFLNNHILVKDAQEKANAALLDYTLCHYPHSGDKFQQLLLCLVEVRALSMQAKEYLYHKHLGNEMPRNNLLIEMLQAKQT
Experimental: Apparent Kd interaction data of phosphoinositides was determined on human apo-SF-1 LBD by a previously described native gel shift assay ([21]) to monitor equilibrium binding to each phosphoinositide. Briefly, apo-SF-1 ligand binding domain was generated using an on-column washout procedure to remove bound phospholipid, wherein pure SF-1 bound to dipalmitoyl PIP3 was loaded onto a Mono Q column and washed with 1.0 L of 20 mM Hepes (8.0), 1 mM EDTA with 2 mM CHAPS at 2 ml/min to remove all bound phospholipid from SF-1 by on-column dilution. The buffer was then changed into 20 mM Hepes (8.0), 1 mM EDTA to remove detergents, and apo-SF-1 eluted using a ammonium acetate gradient, pooled, protein concentration quantitated, and then used in the phosphoinositide binding assay. For the phosphoinositide binding assay, each phosphoinositide was resuspended in water, sonicated, diluted, and stored under nitrogen at 4°C. Phosphoinositides were always re-sonicated immediately before use in binding assays. Two microliters of serially diluted phosphoinositide were added to binding reactions of 25 μl total volume, containing 1 μM final concentration of apo-SF-1 LBD in 20 mM Hepes (8.0), 1 mM EDTA, and 10 mM ammonium acetate in 200 μl polypropylene PCR strip tubes. Binding reactions were incubated at 37°C for 1 h in a PCR thermocycler with a heated reaction cover, the reaction mixed with 3 μl native loading buffer (40% glycerol, 0.005% Ponceau S) and run on a 4% to 16% polyacrylamide Bis-Tris NativePage™ gel (Invitrogen). After fixation and silver staining (BioRad), gels were scanned, the phosphoinositide-shifted band quantitated using NIH image, and apparent Kd determined by nonlinear curve fit to a single-site binding model in GraphPad Prism. Data represent at least three independent replicates.

human apo-SF-1 LBD [2] = biological target: T1, human apo-SF-1 LBD; set-up: method as in PMID 25288771; conditions: previous work; cited from earlier work
human SF-1 LBD (2CS) = biological target: T2, human SF-1 LBD (2CS) (Homo sapiens, UniProt Q13285, C247S/C412S); assay: Fluorescence polarization coactivator binding assay: 5Fam-labeled PGC1α peptide binding to lipid-complexed SF-1 LBD; conditions: SF-1 bound to dioleoyl vs dipalmitoyl PIP3
T2 construct: human SF-1 LBD (218–461) 2CS “Cys-lite” mutant (C247S and C412S); 6X-HIS (N, cleaved yes); TEV site (N, cleaved yes); made in house; host or cells: E. coli BL21 (DE3); peptide purchased from New England Peptide
T2 sequence (Q13285 218-461 C247S/C412S): as above
Excerpt: The same human SF-1 LBD (2CS) construct used for crystallization was complexed with dioleoyl PIP3 and subjected to anion exchange chromatography to separate PIP3-bound species from bacterial phospholipid-bound species. PIP3-bound SF-1 elutes during anion exchange chromatography at higher ionic strength than bacterial phospholipid-bound SF-1 because of the negatively charged phosphates on the PIP3 headgroup. The PIP3-bound and bacterial phospholipid–bound fractions were pooled and concentrated as above, then serially diluted into assay buffer (20 mM Hepes [7.5], 150 mM NaCl) in black-walled 384-well nonprotein binding plates, with 50 μM SF-1 LBD as the highest concentration and a constant 25 μL volume in each well. Reproducibility in the FP assay critically relies on using nonprotein binding plates. To each well, an equal volume of N-terminal 5Fam-labeled PGC1α co-activator peptide (5Fam-EEPSLLKKLLLAPA-OH) was added to a final concentration of 100 nM fluorescently labeled peptide (purchased from New England Peptide). After a 1-h incubation nutating at room temperature in the dark, fluorescence polarization was measured on the Biotek Neo Plate reader at the Vanderbilt High-throughput Screening Center. Data were fit to a standard one-site binding model in GraphPad Prism, and all data represent at least three independent replicates.

SF-1 LBD = biological target: T3, SF-1 LBD (Homo sapiens, UniProt Q13285, C247S/C412S); assay: Limited trypsin proteolytic sensitivity assay of SF-1 LBD bound to PIP3; conditions: trypsin:SF-1 1:500 (w/w), 25°C, 60 min time course; compared with PIP3(16:0/16:0)
T3 construct: human SF-1 LBD comprising amino acids 218–461 of human SF-1; 6X-HIS (N, cleaved yes); TEV site (N, cleaved yes); made in house; host or cells: E. coli BL21 (DE3)
T3 sequence (Q13285 218-461 C247S/C412S): as above
Experimental: Protease selection for limited digestion was carried out by adding elastase, thermolysin, proteinase K, or trypsin to SF-1 LBD in a protease:SF-1 LBD ratio of 1:500 (w/w), followed by incubation at 30 or 60 min and 10% SDS-PAGE followed by Coomassie stain. For determination of SF-1 proteolysis bound by PIP3(16:0/16:0) or PIP3(18:1/18:1), equal amounts of the purified SF-1 LBD used for crystallization without coactivator peptide were incubated with PIP3(16:0/16:0) or PIP3(18:1/18:1) at a protein:PIP3 molar ratio of 1:10, overnight at room temperature, a procedure determined in previous publications to result in complete PIP3 binding to SF-1 LBD. Limited proteolysis analysis was carried out by adding trypsin (Sigma) to SF1-PIP3 in a trypsin:SF-1 ratio of 1:500 (w/w), followed by incubation at 25°C for a 60 min time course. […] Gels were scanned, and the band intensities quantified using Image J (NIH). […]
(also on this page, place not known: Time (min) Relative percentage protection 0.0002*** Supplemental Figure S1:SF-1 dioleoyl is dipalmitoyl PIP3(16:0/16:0). Coomassie-stained trypsin-digested PIP3 species, trypsin treated 60-minute time course, reactions boiled run gel. B.Relative quantitation expressed percentage signal from in lane, quantified using graph comparing either PIP3(16:0/16:0) indicated PIP3(18:1/18:1) indicated trypsin Sidak’smultiple n=3). […]

[3] = biological target: T4, human SF-1 LBD (218-461) 2CS Cys-lite mutant (C247S and C412S) (human, UniProt Q13285 218-461, C247S | C412S); assay: fluorescence polarisation; SF-1 LBD complexed with dipalmitoyl PIP3(16:0/16:0); 100 nM 5Fam-labeled peptide; 20 mM Hepes (7.5), 150 mM NaCl; 1 h at room temperature; one-site binding model; apparent; conditions: both partners purified
T4 construct: The His tag was removed with TEV; also called steroidogenic factor-1; NR5A1; source: complexed with dioleoyl PIP3, dipalmitoyl PIP3 or co-purifying bacterial phospholipid; not shown: His6, N-terminal, cleaved
T4 sequence (Q13285 218-461 C247S/C412S): as above

[4] = biological target: T4, human SF-1 LBD (218-461) 2CS Cys-lite …; assay: fluorescence polarisation; SF-1 LBD complexed with dioleoyl PIP3(18:1/18:1), serially diluted from 50 μM; 100 nM 5Fam-labeled peptide; 20 mM Hepes (7.5), 150 mM NaCl; 1 h at room temperature; one-site binding model; conditions: both partners purified
[5] = biological target: T4, human SF-1 LBD (218-461) 2CS Cys-lite …; assay: crystal structure; SF-1 LBD complexed with dioleoyl PIP3(18:1/18:1), then with 3-fold molar excess of PGC1α peptide; sitting drop, 20% PEG 3350, 0.2 M magnesium formate, 20°C; conditions: both partners purified
[6] = biological target: T5, human SF-1 ligand binding domain (218–461) 2CS Cys-lite mutant (C247S and C412S) (human, UniProt Q13285 218-461, C247S | C412S); assay: fluorescence polarisation; SF-1 LBD bound to bacterial phospholipid serially diluted from 50 uM; 100 nM 5Fam-PGC1α peptide; 20 mM Hepes (7.5), 150 mM NaCl; 1 h at room temperature; one-site binding model; apparent Kd; conditions: both partners purified
T5 construct: also called SF-1 LBD; SF-1 LBD (2CS); not shown: His6, N-terminal, cleaved
T5 sequence (Q13285 218-461 C247S/C412S): as above

Kd (human apo-SF-1 LBD [1]): 130 ± 14 nM
Molecule: CCCCCCCCCCCCCCCC(=O)OC[C@H](COP(=O)(O)OC1C(O)C(OP(=O)(O)O)C(OP(=O)(O)O)C(OP(=O)(O)O)C1O)OC(=O)CCCCCCCCCCCCCCC (stereo partly drawn) [dipalmitoyl PIP3, 1,2-dipalmitoyl-sn-glycero-3-[phosphoinositol-3,4,5-triphophosate]]
affinity for SF-1 (human apo-SF-1 LBD [2]): nanomolar affinity

Kd (human apo-SF-1 LBD [1]): 348 ± 42 nM
Molecule: CCCCCCCCCCCCCCCC(=O)OCC(COP(=O)(O)OC1C(O)C(O)C(OP(=O)(O)O)C(OP(=O)(O)O)C1O)OC(=O)CCCCCCCCCCCCCCC (stereo not drawn) [dipalmitoyl (16:0/16:0) PIP2]

Kd (human apo-SF-1 LBD [1]): 71 ± 10 nM | fold lower apparent Kd than dipalmitoyl (16:0/16:0) PIP3 (human apo-SF-1 LBD [1]; dioleoyl vs dipalmitoyl PIP3 binding to SF-1 LBD): 3 fold | fold poorer affinity of PGC1α coactivator peptide for SF-1 compared with dipalmitoyl PIP3 (human SF-1 LBD (2CS)): 6 fold | fold poorer affinity of PGC1α coactivator peptide for SF-1 compared with dipalmitoyl PIP3 (human SF-1 LBD (2CS); listed as Dioleoyl PIP3(18:1/18:1)): ≥ 5 fold | trypsin protease sensitivity of SF-1 bound to the lipid (SF-1 LBD): increased trypsin protease sensitivity
Molecule: CCCCCCCC/C=C\CCCCCCCC(=O)OC[C@H](COP(=O)(O)OC1C(O)C(OP(=O)(O)O)C(OP(=O)(O)O)C(OP(=O)(O)O)C1O)OC(=O)CCCCCCC/C=C\CCCCCCCC (stereo partly drawn) [dioleoyl PIP3, 1,2-di-(9Z-octadecenoyl)-sn-glycero-3-[phosphoinositol-3,4,5-trisphosphate]]

Kd [3]: 7700 ± 1400 nM | Kd [4]: > 42000 nM
B1: N-terminal 5Fam-labeled PGC1α co-activator peptide (5Fam-EEPSLLKKLLLAPA-OH) (peptide)
peptide: 5Fam-EEPSLLKKLLLAPA-OH
notes: also called fluorophore-labeled PGC1α peptide; fluorescently labeled peptide; source: synthetic peptide, bought: New England Peptide

binding result [5]: binds
B2: synthetic peptide representing the human PGC1α co-activator (H3N-EEPSLLKKLLLAPA-OH) (peptide)
peptide: H-EEPSLLKKLLLAPA-OH
notes: Unlabelled peptide used for co-crystallisation, free N- and C-termini as printed; also called PGC1α peptide; source: synthetic peptide, bought: New England Peptide

Kd [6]: 6800 ± 2000 nM
B3: N-terminal 5Fam-labeled PGC1α co-activator peptide (5Fam-EEPSLLKKLLLAPA-OH) (peptide)
peptide: 5Fam-EEPSLLKKLLLAPA-OH
notes: the validation report numbers the modelled residues P141-A152 (D2:p5); also called PGC1α peptide; fluorophore-labeled PGC1α peptide; source: synthetic peptide; bought: New England Peptide
